Results: ChEMBL document CHEMBL3217615, “Novel 3,5-bis(arylidiene)-4-piperidone based monocarbonyl analogs of curcumin: anticancer activity evaluation and mode of action study” (2014)

How the values were obtained:
Assay type in all cases: functional
COLO 205 [1] = test: Induction of apoptosis in human COLO205 cells assessed as DNA fragmentation at 10 uM
T47D = test: Growth inhibition of human T47D cells after 48 hrs by sulforhodamine B assay
[2] = Growth inhibition of human OVCAR3 cells assessed as cell growth at 10^-6 M after 48 hrs by sulforhodamine B assay; conditions: OVCAR-3, 48 h, read-out: Activity
HT-29 = test: Growth inhibition of human HT-29 cells assessed as cell growth at 10^-6 M after 48 hrs by sulforhodamine B assay; conditions: HT-29, 48 h, read-out: Activity
[3] = Growth inhibition of human HOP92 cells assessed as cell growth at 10^-6 M after 48 hrs by sulforhodamine B assay; conditions: HOP-92, 48 h, read-out: Activity
HOP-62 [4] = test: Growth inhibition of human HOP62 cells assessed as cell growth at 10^-6 M after 48 hrs by sulforhodamine B assay; conditions: HOP-62, 48 h, read-out: Activity
A549 = test: Growth inhibition of human A549/ATCC cells assessed as cell growth at 10^-6 M after 48 hrs by sulforhodamine B assay; conditions: A549, 48 h, read-out: Activity
786-0 [5] = test: Growth inhibition of human 786-0 cells assessed as cell growth at 10^-7 M after 48 hrs by sulforhodamine B assay; conditions: 786-0, 48 h, read-out: Activity
[6] = Growth inhibition of human OVCAR4 cells assessed as cell growth at 10^-7 M after 48 hrs by sulforhodamine B assay; conditions: OVCAR-4, 48 h, read-out: Activity
[7] = Growth inhibition of human SF295 cells assessed as cell growth at 10^-5 M after 48 hrs by sulforhodamine B assay; conditions: SF-295, 48 h, read-out: Activity
[8] = Growth inhibition of human UO31 cells assessed as cell growth at 10^-6 M after 48 hrs by sulforhodamine B assay; conditions: UO-31, 48 h, read-out: Activity
786-0 [9] = test: Growth inhibition of human 786-0 cells assessed as cell growth at 10^-6 M after 48 hrs by sulforhodamine B assay; conditions: 786-0, 48 h, read-out: Activity
SK-OV-3 = test: Growth inhibition of human SKOV3 cells assessed as cell growth at 10^-6 M after 48 hrs by sulforhodamine B assay; conditions: SK-OV-3, 48 h, read-out: Activity
[10] = Growth inhibition of human OVCAR8 cells assessed as cell growth at 10^-4 M after 48 hrs by sulforhodamine B assay; conditions: OVCAR-8, 48 h, read-out: Activity
[11] = Growth inhibition of human OVCAR3 cells assessed as cell growth at 10^-4 M after 48 hrs by sulforhodamine B assay; conditions: OVCAR-3, 48 h, read-out: Activity
NCI-H522 = test: Growth inhibition of human NCI-H522 cells assessed as cell growth at 10^-4 M after 48 hrs by sulforhodamine B assay; conditions: NCI-H522, 48 h, read-out: Activity
[12] = Growth inhibition of human MOLT4 cells assessed as cell growth at 10^-4 M after 48 hrs by sulforhodamine B assay; conditions: MOLT-4, 48 h, read-out: Activity
COLO 205 [13] = test: Induction of apoptosis in human COLO205 cells at 10 uM after 24 hrs by Annexin V/propidium iodide staining-based fluorescence microscopy
NCI-H322M = test: Growth inhibition of human NCI-H322M cells assessed as cell growth at 10^-8 M after 48 hrs by sulforhodamine B assay
HOP-62 [14] = test: Growth inhibition of human HOP62 cells assessed as cell growth at 10^-8 M after 48 hrs by sulforhodamine B assay; conditions: HOP-62, 48 h
PC-3 = test: Growth inhibition of human PC3 cells after 48 hrs by sulforhodamine B assay; conditions: PC-3, 48 h
CAKI-1 = test: Growth inhibition of human CAKI-1 cells after 48 hrs by sulforhodamine B assay; conditions: CAKI-1, 48 h
786-0 [15] = test: Growth inhibition of human 786-0 cells after 48 hrs by sulforhodamine B assay; conditions: 786-0, 48 h
[16] = Growth inhibition of human OVCAR5 cells after 48 hrs by sulforhodamine B assay; conditions: OVCAR-5, 48 h
IGROV-1 [17] = test: Growth inhibition of human IGROV1 cells after 48 hrs by sulforhodamine B assay; conditions: IGROV-1, 48 h
[18] = Growth inhibition of human UACC257 cells after 48 hrs by sulforhodamine B assay; conditions: UACC-257, 48 h
U-251 = test: Growth inhibition of human U251 cells after 48 hrs by sulforhodamine B assay; conditions: U-251, 48 h
[19] = Growth inhibition of human UO31 cells assessed as cell growth at 10^-4 M after 48 hrs by sulforhodamine B assay; conditions: UO-31, 48 h, read-out: Activity
IGROV-1 [20] = test: Growth inhibition of human IGROV1 cells assessed as cell growth at 10^-7 M after 48 hrs by sulforhodamine B assay; conditions: IGROV-1, 48 h, read-out: Activity
M14 = test: Growth inhibition of human M14 cells assessed as cell growth at 10^-7 M after 48 hrs by sulforhodamine B assay; conditions: M14, 48 h, read-out: Activity
Malme-3M = test: Growth inhibition of human MALME-3M cells assessed as cell growth at 10^-7 M after 48 hrs by sulforhodamine B assay; conditions: read-out: Activity
SR = test: Growth inhibition of human SR cells assessed as cell growth at 10^-7 M after 48 hrs by sulforhodamine B assay; conditions: read-out: Activity
HL-60(TB) = test: Growth inhibition of human HL-60(TB) cells assessed as cell growth at 10^-7 M after 48 hrs by sulforhodamine B assay; conditions: HL-60, 48 h, read-out: Activity
[21] = Growth inhibition of human OVCAR8 cells assessed as cell growth at 10^-8 M after 48 hrs by sulforhodamine B assay; conditions: OVCAR-8, 48 h
[22] = Growth inhibition of human OVCAR4 cells assessed as cell growth at 10^-8 M after 48 hrs by sulforhodamine B assay; conditions: OVCAR-4, 48 h
[23] = read-out: LC50 (the source's name)

Compound: Cc1ccc(S(=O)(=O)N2C/C(=C\c3cc(F)cc(F)c3)C(=O)/C(=C/c3cc(F)cc(F)c3)C2)cc1
- Activity (COLO 205 [1]): 69.5%
- GI50 (T47D): 1.79 µM
- TGI (T47D): 6.09 µM
- CC50 (T47D; [23]): 54.3 µM
- growth at 1 µM [2]: 16%
- growth at 1 µM (HT-29): -22%
- growth at 1 µM [3]: 55%
- growth at 1 µM (HOP-62 [4]): 93%
- growth at 1 µM (A549): 86%
- growth at 0.1 µM (786-0 [5]): 104%
- growth at 0.1 µM [6]: 93%
- growth at 10 µM [7]: -44%
- growth at 1 µM [8]: 55%
- growth at 1 µM (786-0 [9]): 34%
- growth at 1 µM (SK-OV-3): 77%
- growth at 100 µM [10]: -71%
- growth at 100 µM [11]: -98%
- growth at 100 µM (NCI-H522): -94%
- growth at 100 µM [12]: -27%
- Activity (COLO 205 [13]): 70%
- GI50 (NCI-H322M): 4.68 µM
- LC50 (NCI-H322M): > 100 µM
- growth at 0.01 µM (NCI-H322M; read-out: Activity): 102%
- TGI (NCI-H322M; read-out: pTGI (converted)): 22.9 µM
- GI50 (HOP-62 [14]): 2.04 µM
- LC50 (concentration killing 50% of cells) (HOP-62 [14]): 11.7 µM
- growth at 0.01 µM (HOP-62 [14]; read-out: Activity): 98%
- TGI (HOP-62 [14]; read-out: pTGI (converted)): 4.68 µM
- GI50 (PC-3): 0.248 µM
- TGI (PC-3): 0.803 µM
- CC50 (PC-3; [23]): 9.28 µM
- GI50 (CAKI-1): 0.365 µM
- TGI (CAKI-1): 2.43 µM
- CC50 (CAKI-1; [23]): 61.9 µM
- GI50 (786-0 [15]): 0.587 µM
- TGI (786-0 [15]): 1.91 µM
- CC50 (786-0 [15]; [23]): 4.95 µM
- GI50 [16]: 1.02 µM
- TGI [16]: 2.75 µM
- CC50 [16, 23]: 7.4 µM
- GI50 (IGROV-1 [17]): 0.436 µM
- TGI (IGROV-1 [17]): 1.55 µM
- CC50 (IGROV-1 [17]; [23]): 5.17 µM
- GI50 [18]: 0.939 µM
- TGI [18]: 2.9 µM
- CC50 [18, 23]: 8.6 µM
- GI50 (U-251): 0.188 µM
- TGI (U-251): 0.53 µM
- CC50 (U-251; [23]): 2.02 µM
- growth at 100 µM [19]: -95%
- growth at 0.1 µM (IGROV-1 [20]): 106%
- growth at 0.1 µM (M14): 98%
- growth at 0.1 µM (Malme-3M): 101%
- growth at 0.1 µM (SR): 14%
- growth at 0.1 µM (HL-60(TB)): 89%
- GI50 [21]: 0.302 µM
- LC50 [21]: 16.2 µM
- growth at 0.01 µM ([21]; read-out: Activity): 95%
- TGI ([21]; read-out: pTGI (converted)): 1.78 µM
- GI50 [22]: 0.437 µM
- LC50 [22]: 36.3 µM
- growth at 0.01 µM ([22]; read-out: Activity): 100%
- TGI ([22]; read-out: pTGI): 5.25 µM
